Several values for one entry are separate records, joined by “and”; a condition that tells them apart may be missing. Equal values may be shown once. Inconclusive results and toxic doses are left out. Rule for the calls: active = survival T/C of 150% or more; inactive = T/C below 125% in these data.
System: CD2F1 mice, L1210 leukemia ip, survival T/C
Assay: NCI In Vivo Anticancer Drug Screen. Data for tumor model L1210 Leukemia (intraperitoneal) in CD2F1 (CDF1) mice
Settings: higher = longer survival
How it was run: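 In this screen, transplantable tumors were grown in mice given either the compound or its vehicle. Results were expressed as the treated measurement relative to the control measurement.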

[1] = endpoint: mean survival time, dose: 100.0 mg/kg/injection, schedule: Q04DX002 (ip), vehicle: saline with Tween-80
[2] = endpoint: mean survival time, dose: 200.0 mg/kg/injection, schedule: Q04DX002 (ip), vehicle: saline with Tween-80
[3] = endpoint: mean survival time, dose: 400.0 mg/kg/injection, schedule: Q04DX002 (ip), vehicle: saline with Tween-80
[4] = endpoint: mean survival time, dose: 6.25 mg/kg/injection, schedule: Q01DX009 (ip), vehicle: saline with Tween-80
[5] = endpoint: mean survival time, dose: 12.5 mg/kg/injection, schedule: Q01DX009 (ip), vehicle: saline with Tween-80
[6] = endpoint: mean survival time, dose: 100.0 mg/kg/injection, schedule: Q01DX009 (ip), vehicle: saline with Tween-80
[7] = endpoint: mean survival time, dose: 100.0 mg/kg/injection, schedule: Q04DX003 (ip), vehicle: saline with Tween-80
[8] = endpoint: mean survival time, dose: 200.0 mg/kg/injection, schedule: Q04DX003 (ip), vehicle: saline with Tween-80
[9] = endpoint: mean survival time, dose: 400.0 mg/kg/injection, schedule: Q04DX003 (ip), vehicle: saline with Tween-80

Measured: T/C

Nc1nc2c([nH]c(=S)n2C2OC(CO)C(O)C2O)c(=O)[nH]1 (stereo unspecified)
inactive: [1] 100 % of control | [2] 97 % of control | [3] 97 % of control

O=C1c2ccccc2C(=O)N1c1nc2ccccc2s1
inactive: [1] 96 % of control | [2] 89 % of control | [3] 100 % of control

COc1ccc(NC(=O)NCCCl)cc1
inactive: endpoint: mean survival time, dose: 100.0 mg/kg/injection, schedule: Q01DX001 (ip), vehicle: saline with Tween-80 90 % of control | endpoint: mean survival time, dose: 200.0 mg/kg/injection, schedule: Q01DX001 (ip), vehicle: saline with Tween-80 94 % of control

O=C(O)CCCC1CCc2ccccc2C1 (stereo unspecified)
inactive: endpoint: mean survival time, dose: 100.0 mg/kg/injection, schedule: Q01DX009 (ip), vehicle: Klucel (hydroxypropylcellulose) (HPC) 96 % of control | endpoint: mean survival time, dose: 200.0 mg/kg/injection, schedule: Q01DX009 (ip), vehicle: Klucel (hydroxypropylcellulose) (HPC) 102 % of control | endpoint: mean survival time, dose: 400.0 mg/kg/injection, schedule: Q01DX009 (ip), vehicle: Klucel (hydroxypropylcellulose) (HPC) 97 % of control

O=C1CC2CC1C1C3CCC(CC3)C21 (stereo unspecified)
inactive: endpoint: mean survival time, dose: 3.13 mg/kg/injection, schedule: Q01DX009 (ip), vehicle: saline with Tween-80 86 % of control | [4] 101 % of control | [5] 90 % of control and 98 % of control

NC1CCCCC1N.NC1CCCCC1N.[Cl-].[Cu+] (stereo unspecified)
inactive: endpoint: mean survival time, dose: 1.56 mg/kg/injection, schedule: Q04DX002 (ip), vehicle: saline 97 % of control | endpoint: mean survival time, dose: 3.13 mg/kg/injection, schedule: Q04DX002 (ip), vehicle: saline 97 % of control | endpoint: mean survival time, dose: 6.25 mg/kg/injection, schedule: Q04DX002 (ip), vehicle: saline 97 % of control

CC(C)(C)C1OCCCO1
inactive: endpoint: mean survival time, dose: 100.0 mg/kg/injection, schedule: Q04DX002 (ip), vehicle: saline 104 % of control | endpoint: mean survival time, dose: 200.0 mg/kg/injection, schedule: Q04DX002 (ip), vehicle: saline 110 % of control | endpoint: mean survival time, dose: 400.0 mg/kg/injection, schedule: Q04DX002 (ip), vehicle: saline 104 % of control

CC(=Nc1ccccc1)C1=C(O)C(Cc2cccc(F)c2)NC1=O (stereo unspecified)
inactive: [1] 116 % of control | [3] 103 % of control

CN(C)CC(CN(C)C)C(=O)O
inactive: endpoint: mean survival time, dose: 50.0 mg/kg/injection, schedule: Q01DX001 (ip), vehicle: saline 103 % of control | endpoint: mean survival time, dose: 100.0 mg/kg/injection, schedule: Q01DX001 (ip), vehicle: saline 104 % of control | endpoint: mean survival time, dose: 200.0 mg/kg/injection, schedule: Q01DX001 (ip), vehicle: saline 108 % of control

COc1cc2cc(c1Cl)N(C)C(=O)C[C@H](OC(=O)[C@H](C)N(C)C(C)=O)[C@]1(C)O[C@H]1[C@H](C)[C@@H]1C[C@@](O)(NC(=O)O1)[C@H](OC)C=C/C=C(\C)C2
inactive: endpoint: mean survival time, dose: 0.5 mg/kg/injection, schedule: Q01DX009 (ip), vehicle: saline 104 % of control | endpoint: mean survival time, dose: 1.0 mg/kg/injection, schedule: Q01DX009 (ip), vehicle: saline 109 % of control | endpoint: mean survival time, dose: 2.0 mg/kg/injection, schedule: Q01DX009 (ip), vehicle: saline 107 % of control | endpoint: mean survival time, dose: 32.0 mg/kg/injection, schedule: Q01DX009 (ip), vehicle: saline 91 % of control | endpoint: mean survival time, dose: 8.0 micrograms/kg/injection, schedule: Q01DX009 (ip), vehicle: saline + alcohol 111 % of control | endpoint: mean survival time, dose: 12.0 micrograms/kg/injection, schedule: Q01DX009 (ip), vehicle: saline + alcohol 109 % of control | endpoint: mean survival time, dose: 16.0 micrograms/kg/injection, schedule: Q01DX009 (ip), vehicle: saline + alcohol 112 % of control | endpoint: mean survival time, dose: 32.0 micrograms/kg/injection, schedule: Q01DX009 (ip), vehicle: saline + alcohol 122 % of control | endpoint: mean survival time, dose: 200.0 micrograms/kg/injection, schedule: Q01DX009 (ip), vehicle: saline + alcohol 120 % of control | endpoint: median survival time, dose: 4.0 micrograms/kg/injection, schedule: Q01DX009 (ip), vehicle: clinical formulation 117 % of control | endpoint: median survival time, dose: 8.0 micrograms/kg/injection, schedule: Q01DX009 (ip), vehicle: clinical formulation 117 % of control | endpoint: median survival time, dose: 16.0 micrograms/kg/injection, schedule: Q04DX003 (ip), vehicle: clinical formulation 112 % of control | endpoint: median survival time, dose: 32.0 micrograms/kg/injection, schedule: Q04DX003 (ip), vehicle: clinical formulation 117 % of control | endpoint: median survival time, dose: 64.0 micrograms/kg/injection, schedule: Q01DX001 (ip), vehicle: clinical formulation 110 % of control | endpoint: median survival time, dose: 512.0 micrograms/kg/injection, schedule: Q04DX003 (ip), vehicle: clinical formulation 96 % of control

CCN(CC)CCC(=O)c1ccccc1
inactive: endpoint: mean survival time, dose: 3.12 mg/kg/injection, schedule: Q01DX009 (ip), vehicle: saline with Tween-80 100 % of control | endpoint: mean survival time, dose: 3.12 mg/kg/injection, schedule: Q01DX009 (ip), vehicle: suspension in saline 96 % of control | [4] 103 % of control | endpoint: mean survival time, dose: 6.25 mg/kg/injection, schedule: Q01DX009 (ip), vehicle: suspension in saline 95 % of control | [5] 102 % of control | endpoint: mean survival time, dose: 12.5 mg/kg/injection, schedule: Q01DX009 (ip), vehicle: saline 90 % of control | endpoint: mean survival time, dose: 12.5 mg/kg/injection, schedule: Q01DX009 (ip), vehicle: suspension in saline 96 % of control | endpoint: mean survival time, dose: 25.0 mg/kg/injection, schedule: Q01DX009 (ip), vehicle: saline with Tween-80 103 % of control | endpoint: mean survival time, dose: 25.0 mg/kg/injection, schedule: Q01DX009 (ip), vehicle: saline 94 % of control | endpoint: mean survival time, dose: 25.0 mg/kg/injection, schedule: Q01DX009 (ip), vehicle: suspension in saline 106 % of control | endpoint: mean survival time, dose: 50.0 mg/kg/injection, schedule: Q01DX009 (ip), vehicle: saline with Tween-80 101 % of control | endpoint: mean survival time, dose: 50.0 mg/kg/injection, schedule: Q01DX009 (ip), vehicle: saline 92 % of control | endpoint: mean survival time, dose: 50.0 mg/kg/injection, schedule: Q01DX009 (ip), vehicle: suspension in saline 106 % of control | [6] 93 % of control

COc1ccc(Br)cc1C1OC(=O)c2c(OC)c(OC)cc(N)c21 (stereo unspecified)
inactive: [7] 98 % of control | [8] 92 % of control | [9] 88 % of control

CC1(C)N=C(N)N=C(N)N1c1ccccc1Cl
inactive: endpoint: mean survival time, dose: 25.0 mg/kg/injection, schedule: Q04DX002 (ip), vehicle: saline 103 % of control | endpoint: mean survival time, dose: 50.0 mg/kg/injection, schedule: Q04DX002 (ip), vehicle: saline 100 % of control

CS(=O)(=O)OCCF
inactive: endpoint: mean survival time, dose: 1.5 mg/kg/injection, schedule: Q04DX003 (ip), vehicle: saline with Tween-80 98 % of control | endpoint: mean survival time, dose: 3.0 mg/kg/injection, schedule: Q04DX003 (ip), vehicle: saline with Tween-80 98 % of control | endpoint: mean survival time, dose: 6.0 mg/kg/injection, schedule: Q04DX003 (ip), vehicle: saline with Tween-80 103 % of control

C1CC[N-]CC1.C1CC[N-]CC1.[Cl][Pd][Cl]
inactive: endpoint: mean survival time, dose: 25.0 mg/kg/injection, schedule: Q04DX002 (ip), vehicle: saline with Tween-80 89 % of control | endpoint: mean survival time, dose: 50.0 mg/kg/injection, schedule: Q04DX002 (ip), vehicle: saline with Tween-80 96 % of control

CCOC(=O)c1cc(=O)n(C)c2ccc(OCC)cc12
inactive: endpoint: mean survival time, dose: 100.0 mg/kg/injection, schedule: Q01DX009 (ip), vehicle: saline sonified 101 % of control | [7] 100 % of control | endpoint: mean survival time, dose: 200.0 mg/kg/injection, schedule: Q01DX009 (ip), vehicle: saline sonified 97 % of control | [8] 91 % of control | endpoint: mean survival time, dose: 400.0 mg/kg/injection, schedule: Q01DX009 (ip), vehicle: saline sonified 97 % of control | [9] 91 % of control

O=C1c2ccccc2C2c3ccccc3CCN12 (stereo unspecified)
inactive: [6] 103 % of control | [7] 104 % of control | endpoint: mean survival time, dose: 200.0 mg/kg/injection, schedule: Q01DX009 (ip), vehicle: saline with Tween-80 97 % of control | [8] 102 % of control | endpoint: mean survival time, dose: 400.0 mg/kg/injection, schedule: Q01DX009 (ip), vehicle: saline with Tween-80 97 % of control | [9] 102 % of control
